In PubChem BioAssay (NCI):
“And” between values parts separate entries of the source, which are not always exact repeats. Equal entries are not always repeated.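 Each compound was tested at five concentrations against cells in 96-well plates for 48 hours. GI50 marks 50% less growth. TGI is the concentration that stops growth completely.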

Columns and labels:
Assay in all cases: NCI tumour cell line growth inhibition, 48 h
DMS 114 small cell lung = tested on: DMS 114 small cell lung
KM20L2 colon = tested on: KM20L2 colon
DLD-1 colon = tested on: DLD-1 colon
RXF-631 renal = tested on: RXF-631 renal
HOP-18 NSCLC = tested on: HOP-18 NSCLC
SNB-78 CNS = tested on: SNB-78 CNS
SN12K1 renal = tested on: SN12K1 renal
MDA-N = tested on: MDA-N
P388 leukemia = tested on: P388 leukemia
P388/ADR leukemia = tested on: P388/ADR leukemia

Row | Compound | TGI (DMS 114 small cell lung) | TGI (KM20L2 colon) | TGI (DLD-1 colon) | TGI (RXF-631 renal) | TGI (HOP-18 NSCLC) | TGI (SNB-78 CNS) | TGI (SN12K1 renal) | TGI (MDA-N) | TGI (P388 leukemia) | TGI (P388/ADR leukemia) | GI50 (MDA-N)
1 | O=c1nc2cc(-c3ccccc3)[nH]c2nn1-c1c(Cl)cc(Cl)cc1Cl | > 100 µM | 57.5 µM | > 100 µM | > 100 µM | 44.9 µM | > 100 µM |  |  |  |  | 
2 | C=C1C(C)C2C(Cc3ccccc3)NC(=O)C23C(OC(C)=O)/C=C/C(C)(O)CC(C)C/C=C/C3C1O (stereo not drawn) | > 100 µM | > 100 µM | > 100 µM |  | 0.814 µM | 1.3 µM | 37.1 µM | > 100 µM | 41.3 µM | 33.5 µM | 
3 | O=[N+]([O-])c1ccc(Cl)c(C2SCc3nc4ccccc4n32)c1 (stereo not drawn) | > 100 µM |  | > 100 µM |  | 67.7 µM | > 100 µM |  |  |  |  | 
4 | COc1ccc(O)c2c1C(=O)CCCC2=O | > 100 µM | > 100 µM | > 100 µM | > 100 µM |  | > 100 µM |  |  |  |  | 
5 | Cc1nc(C(N)=S)sc1C(=O)/C=C/c1cccc(O)c1 | > 100 µM | > 100 µM | > 100 µM | > 100 µM | > 100 µM | > 100 µM |  |  |  |  | 
6 | COc1ccc(NC(=O)C(=O)C2NC(=S)NC2=O)c(OC)c1 (stereo not drawn) | > 100 µM | > 100 µM | > 100 µM | > 100 µM |  | > 100 µM |  |  |  |  | 
7 | COc1cc2c(cc1C)n(O)c(C)c(C(=O)C/C(=N/NC(=O)C[N+](C)(C)C)C(=O)Nc1cccc(Cl)c1C)[n+]2=O | > 100 µM | > 100 µM | > 100 µM | > 100 µM | > 100 µM | > 100 µM |  |  |  |  | 
8 | CC(=O)OC1CCC2(C)C(=CC(C3C=C4CC(OC(C)=O)CCC4(C)C4=C3C3CC5OC6(CCC(C)CO6)C(C)C5C3(C)CC4)C3=C2CCC2(C)C3CC3OC4(CCC(C)CO4)C(C)C32)C1 (stereo not drawn) |  |  |  |  |  |  |  | 30.9 µM |  |  | 
9 | CCC1(CN(C)C)CC/C(=C\c2ccc3c(c2)OCO3)C1=O (stereo not drawn) |  | > 100 µM | > 100 µM | > 100 µM | > 100 µM | > 100 µM |  |  |  |  | 
10 | COC(=O)C1=C(C(=O)OC)C2(C(=O)OC)OC1(OC)C(C1(C(=O)OC)C(C(=O)OC)=C1C(=O)OC)=C2C(=O)OC (stereo not drawn) | > 100 µM | > 100 µM | > 100 µM |  | > 100 µM | > 100 µM |  |  |  |  | 
11 | COc1cc(C2C(C(=O)Nc3ccccc3)=C(C)NC(C)=C2C(=O)Nc2ccccc2)ccc1O | > 100 µM | 40 µM | > 100 µM |  | > 100 µM | > 100 µM |  |  |  |  | 
12 | Cc1cc(C)nc(NS(=O)(=O)c2ccc(NC(=O)c3cccc4cc5ccccc5nc34)cc2)n1 |  | > 100 µM | 98.4 µM | > 100 µM |  | 72.7 µM |  |  |  |  | 
13 | Cc1ccc(Nc2ccc(Nc3ccc(C)cc3)c3c2C(=O)c2c(O)ccc(O)c2C3=O)cc1 | > 100 µM |  | > 100 µM |  |  | > 100 µM |  |  |  |  | 
14 | Fc1ccccc1C1CC(C(c2ccccc2)c2ccccc2)=Nc2ccccc2S1 (stereo not drawn) | 23.6 µM | 27.6 µM | 23.6 µM | 27.2 µM | 31.4 µM |  |  |  |  |  | 
15 | CC1=C2C(c3ccccc3)(c3ccccc3)C3C=CC2(C=N3)N(C(=O)NC2CCCCC2)C1=O (stereo not drawn) | 32.5 µM | 30.6 µM |  | 26.2 µM | 34.3 µM | 31.9 µM |  |  |  |  | 
16 | O=[As](O)(O)c1ccc(Cc2ccc([As](=O)(O)O)cc2)cc1 |  |  |  |  |  |  |  | 1.65 µM |  |  | 
17 | Oc1ccc2ccccc2c1N=Nc1ccccc1 |  |  |  |  |  |  |  | > 100 µM |  |  | 
18 | COc1ccc2c(c1)CC[C@@H]1C2CC[C@]2(C)C(=O)NC(=O)CC12 (stereo partly drawn) |  | > 100 µM | > 100 µM |  | > 100 µM | > 100 µM |  |  |  |  | 
19 | CCN(CC)CCCNC(=O)Cc1ccccc1Nc1c(Cl)cccc1Cl | 27.6 µM | 12.4 µM | 28.3 µM |  |  | 32.8 µM |  |  |  |  | 
20 | CC[C@@H]1OC2(C)CC(S(=O)(=O)c3ccccc3)CC1O2 (stereo partly drawn) | > 100 µM | > 100 µM | > 100 µM | > 100 µM | > 100 µM | > 100 µM |  |  |  |  | 

Row | Compound | TGI (DMS 114 small cell lung) | TGI (KM20L2 colon) | TGI (DLD-1 colon) | TGI (RXF-631 renal) | TGI (HOP-18 NSCLC) | TGI (SNB-78 CNS) | TGI (SN12K1 renal) | TGI (MDA-N) | TGI (P388 leukemia) | TGI (P388/ADR leukemia) | GI50 (MDA-N)
21 | COc1ccc(C2S/C(=C\c3ccc(OC)cc3OC)C(=O)N2NC(=O)Cc2ccccc2)cc1 (stereo not drawn) | > 100 µM |  | > 100 µM |  | > 100 µM |  |  |  |  |  | 
22 | Cc1ccc(NC(=O)C(=O)Cc2nc3ccccc3o2)c(C)c1 | > 100 µM | > 100 µM | > 100 µM | > 100 µM |  | > 100 µM |  |  |  |  | 
23 | CCNCC(O)c1ccc(N)c([N+](=O)[O-])c1 (stereo not drawn) |  |  |  |  |  |  |  | > 100 µM |  |  | 
24 | CC(=O)Oc1cccc2c1C(=O)c1c(OC(C)=O)cc(C)cc1C2=O |  |  |  |  |  |  |  | > 100 µM |  |  | 
25 | CCOC(=O)C(C)(C)Oc1ccc2c(-c3ccc(Cl)cc3)cc(=O)oc2c1 | > 100 µM | > 100 µM | > 100 µM | > 100 µM |  |  |  |  |  |  | 
26 | CCOC(=O)C(C[Si](C)(C)C)P(=O)(OCC)OCC (stereo not drawn) | > 100 µM | > 100 µM | > 100 µM | > 100 µM |  | > 100 µM |  |  |  |  | 
27 | O=c1cccccc1NCCCCNc1cccccc1=O | > 100 µM | > 100 µM | > 100 µM | > 100 µM | > 100 µM | > 100 µM |  |  |  |  | 
28 | C[Si](C)(C)/C=C/CN1C(=O)CCC1O (stereo not drawn) | > 100 µM | > 100 µM | > 100 µM |  | > 100 µM | > 100 µM |  |  |  |  | 
29 | O=c1[nH]c(=S)[nH]c(O)c1/C=C1\C=CC=N1 | 23.3 µM | 41.1 µM | 22 µM |  | 85.7 µM | 67.4 µM |  |  |  |  | 
30 | CN(O)C(=O)Cc1ccccc1 | > 100 µM | > 100 µM | > 100 µM |  |  | > 100 µM |  |  |  |  | 
31 | Cc1ccc(N2C(=O)/C(=C3\Sc4c(nc(C)[nH]c4=O)N3c3ccccc3)SC2=S)cc1 | > 100 µM | > 100 µM | > 100 µM |  |  | > 100 µM |  |  |  |  | 
32 | O=[N+]([O-])c1ccccc1C1N2CCCCC2[C@@H]2c3[nH]c4ccccc4c3CCN12 (stereo partly drawn) | 14.7 µM | 25.1 µM | 36.3 µM | 32.8 µM | > 100 µM | 32.2 µM |  |  |  |  | 
33 | CCC1(OC(C)=O)C(=O)OCc2c1cc1n(c2=O)Cc2cc3ccccc3nc2-1 (stereo not drawn) | 11.9 µM | > 100 µM | > 100 µM | > 100 µM | > 100 µM | > 100 µM |  |  |  |  | 
34 | O=C1C(c2ccccc2)=C(c2ccccc2)C(c2ccc(CCCCCCc3ccc(C4=C(c5ccccc5)C(=O)C(c5ccccc5)=C4c4ccccc4)cc3)cc2)=C1c1ccccc1 | > 100 µM | > 100 µM | > 100 µM | > 100 µM |  | > 100 µM |  |  |  |  | 
35 | CC1(C)OCN(c2ccc(Cl)cc2)Cn2c1nc1ccccc12 | 53.2 µM | > 100 µM | > 100 µM |  | > 100 µM | > 100 µM |  | > 100 µM |  |  | 
36 | CN(C)c1ccc(/C=C/c2ccnc3ccccc23)cc1 |  |  |  |  |  |  |  | 40.1 µM |  |  | 
37 | CCCCCCCCCC(=O)CC(=O)c1c(O)cccc1O | 89.5 µM | > 100 µM | > 100 µM |  | 93.6 µM | > 100 µM |  |  |  |  | 
38 | O=[N+]([O-])c1ccc2c(N=Nc3c(O)ccc4ccccc34)c(O)cc(S(=O)(=O)O)c2c1 |  |  |  |  |  |  |  | 50 µM and > 100 µM |  |  | 45.3 µM
39 | O=c1c([Se]c2coc3ccccc3c2=O)coc2ccccc12 | 31.5 µM | 26.4 µM | 34 µM |  | 29.3 µM | 34.7 µM |  |  |  |  | 
40 | O=C1C2=C(c3ccccc31)C(c1ccccc1Cl)N1C(=O)CSC1=N2 (stereo not drawn) | > 100 µM | > 100 µM | > 100 µM | > 100 µM |  |  |  |  |  |  | 
